Experimental findings from patent US20160184439A1, “ORALLY DISINTEGRATING FILM PREPARATION CONTAINING DONEPEZIL OR PHARMACEUTICALLY ACCEPTABLE SALT THEREOF, AND PREPARATION METHOD THEREFOR” (SEOUL PHARMA. CO., LTD., priority 2013, published 2016) are described below.

The data set is described as follows: Characteristic feature of the main excipients. The settings on record: effect of excipient in donepezil film. From the text: The characteristic feature of the main excipients of the present invention—In order to achieve the object of the above formulation research, it can be seen that the main excipients of the below Table 3 are essential elements.

As to `Cc1cc(C(C)(C)C)c(O)c(C(C)(C)C)c1` [Dibuthylhydroxytoluene], the “Occurrence of the impurity” value is recorded as “Inhibition”.
To `CC(O)COC[C@H]1O[C@@H]2O[C@H]3[C@H](O)[C@@H](O)[C@@H](O[C@H]4[C@H](O)[C@@H](O)[C@@H](O[C@H]5[C@H](O)[C@@H](O)[C@@H](O[C@H]6[C@H](O)[C@@H](O)[C@@H](O[C@H]7[C@H](O)[C@@H](O)[C@@H](O[C@H]8[C@H](O)[C@@H](O)[C@@H](O[C@H]1[C@H](O)[C@H]2O)O[C@@H]8COCC(C)O)O[C@@H]7COCC(C)O)O[C@@H]6COCC(C)O)O[C@@H]5COCC(C)O)O[C@@H]4COCC(C)O)O[C@@H]3COCC(C)O` (some centres unmarked) [Hydroxypropylbetadex] belongs “Inhibition”.
